{"source": "paper PMC7827481", "about": "“Development of A Continuous Fluorescence-Based Assay for N-Terminal Acetyltransferase D” (International Journal of Molecular Sciences, 2021)", "key": {"[1]": {"biological_target": "T1, N-terminal acetyltransferase D (NatD) (Homo sapiens, UniProt Q86UY6)", "T1 construct": "gene NAA40; full-length human NatD, untagged", "test": "ThioGlo4 fluorescence acetyltransferase assay", "type": "biochemical"}, "[2]": {"biological_target": "T1, N-terminal acetyltransferase D (NatD)", "test": "ThioGlo4 fluorescence acetyltransferase assay; confirmed by MALDI-MS (IC50 […])", "type": "biochemical"}, "[3]": {"biological_target": "T1, N-terminal acetyltransferase D (NatD)", "test": "MALDI-MS acetylation inhibition at […] (also […], […] in fluorescence assay)", "type": "biochemical"}, "[4]": {"biological_target": "T1, N-terminal acetyltransferase D (NatD)", "test": "ThioGlo4 fluorescence acetyltransferase assay; confirmed by MALDI-MS ([…] at […])", "type": "biochemical"}, "[5]": {"test_system": "CC(=O)SCCNC(=O)CCNC(=O)[C@H](O)C(C)(C)COP(=O)(O)OP(=O)(O)OC[C@H]1O[C@@H](n2cnc3c(N)ncnc32)[C@H](O)[C@@H]1OP(=O)(O)O", "test": "purified protein", "details": "AcCoA binding site"}}, "data": [{"molecule": "C[C@H](NC(=O)/C(C#N)=C/c1ccc(O)c(O)c1)c1ccccc1", "note": "[AG 835]", "values": [{"measurement": "IC50", "setting": "[1]", "value": "38 ± 2", "unit": "µM"}]}, {"molecule": "O=C(O)C1=CC(=C(c2ccc(O)c(C(=O)O)c2)c2ccc(O)c(C(=O)O)c2)C=CC1=O", "note": "[P1401K09, aurintricarboxylic acid]", "values": [{"measurement": "IC50", "setting": "[2]", "value": "1.5 ± 0.1", "unit": "µM"}]}, {"molecule": "Nc1c(S(=O)(=O)O)cc(Nc2ccc(Nc3nc(Cl)nc(Nc4cccc(S(=O)(=O)O)c4)n3)c(S(=O)(=O)O)c2)c2c1C(=O)c1ccccc1C2=O", "note": "[P1404C10, Reactive blue 2]", "values": [{"measurement": "inhibition at 10 µM", "setting": "[3]", "value": 100, "unit": "%"}]}, {"molecule": "C[C@@H](NC(=O)/C(C#N)=C/c1ccc(O)c(O)c1)c1ccccc1", "note": "[P1404L15, tyrphostin B44(-)]", "values": [{"measurement": "IC50", "setting": "[4]", "value": "63 ± 4", "unit": "µM"}]}, {"molecule": "N-terminal acetyltransferase D (NatD) (Homo sapiens)", "values": [{"measurement": "Km", "setting": "[5]", "value": "0.5 ± 0.06", "unit": "µM"}]}]}
